Experimental data reported in patent US9458100B2, “Synthesis and growth regulatory activity of a prototype member of a new family of aminothiol radioprotectors” (Wisconsin Alumni Research Foundation, priority 2012, dated 2016).
Read-outs that look alike come from different tables or passages of the source. Marks after values point to notes of the source that are not given here.

Key:
mouse [1] = test: Systemic toxicity, maximum tolerated dose in mouse; type: in vivo; conditions: for Mouse IP MTD: intraperitoneal
Description: (§1) During the development of embodiments of the technology provided herein, embodiments of compounds described herein and/or encompassed by the synthetic schemes were tested for systemic toxicity and radioprotection in mouse and rat models (Table 2). Toxic doses are shown as the “maximum tolerated dose” (“MTD”) for intraperitoneal (IP), oral, and subcutaneous (SC) administration routes in Table 2.
(§2) Doses expressed as a fraction of “MTD” are expressed as a fraction of the “maximum tolerated dose”. Doses expressed in units of ug/g correspond to micrograms of the compound per gram of body weight.

[2] = system: mice exposed to whole-body radiation; test: Mouse survival after whole-body radiation (systemic radioprotection); type: in vivo; conditions: for Mouse % Survival: 8.63 Gy whole-body radiation
Description: Exposure of a control mouse to the same dose of radiation in the absence of PrC-210 administration (e.g., a water-only control) is 100% lethal (FIG. 4, “IP Water”). Each treatment group contained 20 mice. The dose of PrC-210 was 252 μg/g body weight.
In additional experiments, female ICR mice received 200 μl doses (e.g., 900 μg/g body weight) of PrC-210 dissolved in water by gavage at the indicated times prior to irradiation (See FIG. 6). At 0 min, mice were irradiated with 9.0 Gy of whole-body radiation in a CS^137 irradiator. Mice were returned to housing and their weights and survival were monitored for the next 60 days. There were six mice in each of the treatment groups.
[…] Survival rates greater than the 0% Survival seen in the vehicle control group were attributed to systemic radioprotection conferred by the systemically administered radioprotector molecule.

ferret = test: Ferret retch/emesis model; type: in vivo
mouse [3] = conditions: intraperitoneal; published value; cited from earlier work
[4] = Biodistribution of intravenous bolus of 14C PrC-210 in rat; type: in vivo
Description: During the development of embodiments of the technology provided herein, experiments were conducted to test the biodistribution of an intravenous bolus dose of radiolabeled (e.g., ^14C) PrC-210 in a rat host. In these experiments, an intravenous bolus of 100 μCi of ^14C PrC-210 was administered into an indwelling catheter in a 300 g rat.

rat [5] = test: Systemic toxicity, maximum tolerated dose in rat; type: in vivo
Description: as §1, §2

rat [6] = test: Rat aortic blood pressure monitoring (hypotension side effect); type: in vivo; conditions: anesthetized rats, intraperitoneal injection
Description: Blood pressure was monitored in the aortic artery of rats using a high-fidelity pressure transducer. Rats were continually anesthetized with 2% isofluorane, and drug doses were administered by intraperitoneal injection. Rats received intraperitoneal saline injections until these injections induced no change in monitored blood pressure. Indicated doses of PrC-210 or amifostine (FIG. 8) were administered and changes in blood pressure and heart rate were recorded. A condensed summary of drug-induced changes for all cannulated rats is shown in panel C. Doses of epinephrine (Epi; hypertensive) were also recurrently admininesterod to test if previous PrC-210 or amifostine doses could be modified.

[7] = system: radiation dermatitis in rat skin; test: Rat radiation dermatitis assay with topical application before irradiation; type: in vivo; conditions: topical in ethanol/water vehicle four times in the 2 h before 17.33 Gy; scored 13 days later
Description: To determine if PrC-210 could function as a topical radioprotector that could prevent radiation dermatitis when applied prior to a cancer patient's daily radiotherapy, a rat assay that realistically mimics human radiation dermatitis was created. This assay quantifies the severity of radiation dermatitis in rat skin 13 days after a single radiation dose of 17.33 Gy. In this study, PrC-210 was applied to rat skin in an ethanol/water delivery vehicle four times in the 2 h before irradiation, and control rats received only topical vehicle before irradiation (FIG. 2). Additional drug/irradiation groups of three rats each received either the alkyl-thiol moiety or the alkyldiamine moiety from PrC-210 in the same delivery vehicle. Following the 17.33 Gy irradiation of a […] patch of dorsal skin on the rats' backs, rats were scored 13 days later.
Molecules were applied to skin in an alcohol/water delivery vehicle prior to receiving a 17.33 Gy radiation dose to the 1.5 cm×3.0 cm skin site. Radiation dermatitis severity (e.g., % of the site covered by scab material) was scored 13 days following irradiation.

[8] = system: rats exposed to whole-body radiation; test: Rat survival after whole-body radiation (oral radioprotection); type: in vivo
Description: Female Sprague-Dawley rats received 200 μl doses of PrC-210 dissolved in water by gavage a time of 60 minutes prior to irradiation (time=−60 min). […] Rats were returned to housing and their weights and survival were monitored for the next 60 days. There were six rats in each of the treatment groups. As shown by FIG. 5, oral PrC-210 confers 100% protection against an otherwise 100% lethal dose of whole-body radiation.

NCCCNCCSP(=O)(O)O [Amifostine, amifostine, reference compound]
Mouse IP MTD (mouse [1]): 760^d μg/g b.w.
Mouse % Survival ([2]; at IP 0.5 MTD: 400 ug/g): 88%
retch/emesis responses (ferret; in vivo): caused retch/emesis responses in each of the four ferrets tested
Mouse IP MTD (mouse [3]): 800^c μg/g b.w.

CN(C)C(=O)C(CCN1CCC(O)(c2ccc(Cl)cc2)CC1)(c1ccccc1)c1ccccc1 [Loperamide]
retch/emesis responses (ferret; ferret equivalent of highest human dose, loperamide as positive control 14 days later): robust retch/emesis response in each of the 14 ferrets

CNCC(CNC)CSSCC(CNC)CNC [PrC-210 Disulfide]
Mouse IP MTD (mouse [1]): 155 μg/g b.w.
Mouse % Survival ([2]; at IP 0.5 MTD: 78 ug/g): <5%
Mouse % Survival ([2]; at IP 0.9 MTD: 140 ug/g): 37%

CNCC(CS)CNC [PrC-210, 3-(methyl-amino)-2-((methylamino)methyl)propane-1-thiol]
Recovery (carcass) ([4]; 100 uCi IV): 6.89%
Cmax ([4]; 100 uCi IV 14C PrC-210): 21,400 ng-eq/g
Tmax ([4]; 100 uCi IV 14C PrC-210): 30 min
Recovery2 (systemic) ([4]; 100 uCi IV, excreta + carcass): 81.23%
Recovery3 (total) ([4]; 100 uCi IV, systemic + skin + cage wash + cage wipe + enclosure): 84.20%
Recovery1 (excreta) ([4]; 100 uCi IV, urine + urine wipes + feces): 74.34%
administered radioactivity eliminated via feces ([4]; intravenous 14C PrC-210): approximately 10%
administered radioactivity eliminated via urine ([4]; intravenous 14C PrC-210): approximately 50%
Rat IP MTD (rat [5]; intraperitoneal): 485 μg/g b.w.
Rat ORAL MTD (rat [5]; oral): 1974 μg/g b.w.
hypotension side effects (rat [6]): does not cause hypotension side effects
Mouse IP MTD (mouse [1]; determined using best fit analysis of survival data): 422^b μg/g b.w.
Mouse IP MTD (mouse [1]; determined using probit analysis of survival data): 504^a μg/g b.w.
Mouse ORAL MTD (mouse [1]; oral): 1780 μg/g b.w.
Mouse SC MTD (mouse [1]; subcutaneous): 431 μg/g b.w.
Mouse % Survival ([2]; at IP 0.5 MTD: 211 ug/g): 98%
Mouse % Survival ([2]; at IP 0.5 MTD: 252 ug/g): 100%
Mouse % Survival ([2]; at ORAL 0.87 MTD: 1550 ug/g (only dose tested)): 100%
protection against otherwise 100% lethal whole-body radiation ([2]; female ICR mice, oral 900 μg/g body weight, 60 minutes before 9.0 Gy): 100%
survival ([2]; mouse, IP 252 μg/g body weight, 30 minutes before 8.75 Gy whole-body radiation): 100%
retch/emesis responses (ferret; in vivo): zero retching or emesis responses
prevention of radiation dermatitis [7]: completely prevent radiation dermatitis
Rat % Survival ([8]; at ORAL 0.5 MTD: 900 ug/g, 9.5 Gy whole-body radiation): 100% (at ORAL 0.5 MTD: 900 ug/g)
protection against otherwise 100% lethal whole-body radiation ([8]; female Sprague-Dawley rats, oral gavage 60 minutes prior, monitored 60 days): 100%

NCC(CN)CS [PrC-211]
Mouse IP MTD (mouse [1]): 475 μg/g b.w.
Mouse % Survival ([2]; at IP 0.25 MTD: 118 ug/g): 37%
Mouse % Survival ([2]; at IP 0.5 MTD: 238 ug/g): 47%
Mouse % Survival ([2]; at IP 0.9 MTD: 427 ug/g): 100%
